Data taken from publication PMC9496151, “Expression and Function of ABC Transporters in Human Alveolar Epithelial Cells” (Biomolecules, 2022).
Values belong to the compound of their own block, whether it stands above or below them.

What was measured:
ABCG2/BCRP [1] = assay: Bidirectional transport of Bodipy FL Prazosin (BCRP activity) in hAELVi; format: in vitro ADME, human
Method: (§1) The activity of ABC transporters was determined by measuring the apical-to-basolateral (AB) and basolateral-to-apical (BA) fluxes of specific substrates. To this aim, cell monolayers were washed twice in HBSS and equilibrated for 30 min in the same solution (pH 7.4, 37 °C). […] After 0, 30, 60, and 120 min, aliquots of the solution were collected from the opposite chamber (receiver chamber) and replaced with the same volume of HBSS. The fluxes were determined by reading fluorescence with an EnSpire® Multimode Plate Reader (Perkin Elmer), or radioactivity with MicroBeta^2 liquid scintillation spectrometer. The apparent permeability coefficient (Papp) was calculated from the data obtained.
(§2) Efflux ratio (ER) was calculated as the ratio between Papp measured for BA and AB fluxes, while uptake ratio (UR) was the ratio between Papp measured for AB and BA fluxes.

ABCG2/BCRP [2] = assay: Bidirectional transport of Bodipy FL Prazosin (BCRP activity) in EpiAlveolar; format: in vitro ADME, human
Method: as §1, §2

MDR1 [3] = assay: Bidirectional transport of Rhodamine123 (MDR1 activity) in EpiAlveolar; format: in vitro ADME, human
Method: as §1, §2

MDR1 [4] = assay: Bidirectional transport of Rhodamine123 (MDR1 activity) in hAELVi; format: in vitro ADME, human
Method: as §1, §2

[5] = 10 µM PSC833, 1 µM Rhodamine123, AB and BA

Method for EpiAlveolar™: The paracellular and transcellular permeability of cell monolayers to solutes was assessed by monitoring the apical-to-basolateral fluxes of ^14C-mannitol and ^3H-propranolol, respectively. In detail, cell monolayers were washed and incubated for 30 min in Hank’s Balanced Salt Solution (HBSS, pH 7.4, 37 °C); HBSS containing ^14C-mannitol (1 µCi/mL, corresponding to 20 µM) or ^3H-propranolol (3 µCi/mL; 10 µM) was then added to the apical side. Aliquots of medium were collected from the basolateral compartment after 0, 30, 60, and 120 min and replaced with fresh HBSS; radioactivity in each sample was measured with a MicroBeta^2 liquid scintillation spectrometer (Perkin Elmer, Italy) and employed to calculate the apparent permeability coefficient (Papp).
The apparent permeability coefficient (Papp) of the tracer molecules was calculated according to the equation:Papp = (dQ⁄dt)⁄(A×C0×60) where dQ/dt is the transport rate of the tracer, A is the filter surface area, C0 is the initial concentration of the tracer in the donor chamber, and 60 is the conversion from minutes to seconds.

Compound: COc1ccc2c3c([nH]c2c1)[C@H](CC(C)C)N1C(=O)[C@H](CCC(=O)OC(C)(C)C)NC(=O)[C@@H]1C3 [Ko143]
inhibition of Bodipy™ FL Prazosin fluxes (ABCG2/BCRP [1]; 20 µM Ko143): no inhibition | inhibition of Bodipy™ FL Prazosin fluxes (ABCG2/BCRP [2]; 20 µM Ko143): no inhibition

Compound: OC[C@@H](O)[C@@H](O)[C@H](O)[C@H](O)CO [mannitol]
paracellular permeability (Papp), apical-to-basolateral flux (EpiAlveolar™): more permeable | paracellular permeability (Papp), apical-to-basolateral flux (hAELVi): slight not significant difference

Compound: Cc1nc(-c2ccc(OCC(C)C)c(C#N)c2)sc1C(=O)O [febuxostat]
inhibition of Bodipy™ FL Prazosin fluxes (ABCG2/BCRP [1]; 50 µM Febuxostat): no inhibition | inhibition of Bodipy™ FL Prazosin fluxes (ABCG2/BCRP [2]; 50 µM Febuxostat): no inhibition

Results, then the compound that gave them:

effect of inhibitor on Papp of Rhodamine123 (MDR1 [3]; [5]): not modified | effect of inhibitor on Papp of Rhodamine123 (MDR1 [4]; [5]): not modified
Compound: C/C=C/C[C@@H](C)C(=O)[C@H]1C(=O)N[C@@H](C(C)C)C(=O)N(C)CC(=O)N(C)[C@@H](CC(C)C)C(=O)N[C@@H](C(C)C)C(=O)N(C)[C@@H](CC(C)C)C(=O)N[C@@H](C)C(=O)N[C@H](C)C(=O)N(C)[C@@H](CC(C)C)C(=O)N(C)[C@@H](CC(C)C)C(=O)N(C)[C@@H](C(C)C)C(=O)N1C [PSC833]

Papp, AB versus BA fluxes (MDR1 [3]; 1 µM Rhodamine123): comparable for AB and BA fluxes | efflux ratio (ER) versus uptake ratio (UR) (MDR1 [3]; 1 µM Rhodamine123): comparable values | Papp, AB versus BA fluxes (MDR1 [4]; 1 µM Rhodamine123): comparable for AB and BA fluxes | efflux ratio (ER) versus uptake ratio (UR) (MDR1 [4]; 1 µM Rhodamine123): comparable values
Compound: COC(=O)c1ccccc1-c1c2ccc(=N)cc-2oc2cc(N)ccc12 [Rhodamine123]

transcellular permeability (Papp), apical-to-basolateral flux (EpiAlveolar™): comparable permeability | transcellular permeability (Papp), apical-to-basolateral flux (hAELVi): comparable permeability
Compound: CC(C)NCC(O)COc1cccc2ccccc12 (centres unmarked) [propranolol]
